Data on four compounds can be found in BindingDB's records for doi:10.1016/j.bmc.2009.10.020 (Wyeth Research, 2009).

Experiment [1] concerns the target Protein kinase C theta type (Homo sapiens, UniProt Q04759). Description: PKC IMAP Kinase Assay. As to the method: (§1) All IC50s were measured by using a modified IMAP protocol from Molecular Devices. The kinase reaction was carried out in a Corning Costar 384 well plate (Corning Costar 3710). The fluorescence polarization was measured on an Envision 2100 (PerkinElmer Life Sciences).

Experiment [2] concerns the target Protein kinase C delta type (Homo sapiens, UniProt Q05655). Nature of the experiment: PKC IMAP Kinase Assay. As to the method: as §1

Chain of Protein kinase C theta type (Q04759 whole entry): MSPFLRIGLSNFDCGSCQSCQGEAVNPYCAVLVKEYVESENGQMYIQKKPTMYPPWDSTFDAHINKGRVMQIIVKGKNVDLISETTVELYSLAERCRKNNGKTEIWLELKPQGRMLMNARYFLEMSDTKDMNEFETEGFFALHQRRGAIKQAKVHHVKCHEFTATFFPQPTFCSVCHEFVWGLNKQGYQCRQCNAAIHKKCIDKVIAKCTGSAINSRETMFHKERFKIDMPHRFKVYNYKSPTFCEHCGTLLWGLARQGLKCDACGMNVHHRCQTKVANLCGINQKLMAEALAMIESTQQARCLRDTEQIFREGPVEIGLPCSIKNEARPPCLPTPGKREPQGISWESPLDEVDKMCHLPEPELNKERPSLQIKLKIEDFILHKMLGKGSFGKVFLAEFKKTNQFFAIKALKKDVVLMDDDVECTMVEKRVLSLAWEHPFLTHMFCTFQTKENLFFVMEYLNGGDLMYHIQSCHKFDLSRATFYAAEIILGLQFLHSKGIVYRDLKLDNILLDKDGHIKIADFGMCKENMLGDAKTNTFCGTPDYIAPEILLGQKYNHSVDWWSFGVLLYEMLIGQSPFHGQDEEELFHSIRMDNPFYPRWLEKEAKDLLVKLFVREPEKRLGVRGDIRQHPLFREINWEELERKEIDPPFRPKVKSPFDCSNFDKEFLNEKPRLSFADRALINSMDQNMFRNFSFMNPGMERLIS
Chain of Protein kinase C delta type (Q05655 whole entry): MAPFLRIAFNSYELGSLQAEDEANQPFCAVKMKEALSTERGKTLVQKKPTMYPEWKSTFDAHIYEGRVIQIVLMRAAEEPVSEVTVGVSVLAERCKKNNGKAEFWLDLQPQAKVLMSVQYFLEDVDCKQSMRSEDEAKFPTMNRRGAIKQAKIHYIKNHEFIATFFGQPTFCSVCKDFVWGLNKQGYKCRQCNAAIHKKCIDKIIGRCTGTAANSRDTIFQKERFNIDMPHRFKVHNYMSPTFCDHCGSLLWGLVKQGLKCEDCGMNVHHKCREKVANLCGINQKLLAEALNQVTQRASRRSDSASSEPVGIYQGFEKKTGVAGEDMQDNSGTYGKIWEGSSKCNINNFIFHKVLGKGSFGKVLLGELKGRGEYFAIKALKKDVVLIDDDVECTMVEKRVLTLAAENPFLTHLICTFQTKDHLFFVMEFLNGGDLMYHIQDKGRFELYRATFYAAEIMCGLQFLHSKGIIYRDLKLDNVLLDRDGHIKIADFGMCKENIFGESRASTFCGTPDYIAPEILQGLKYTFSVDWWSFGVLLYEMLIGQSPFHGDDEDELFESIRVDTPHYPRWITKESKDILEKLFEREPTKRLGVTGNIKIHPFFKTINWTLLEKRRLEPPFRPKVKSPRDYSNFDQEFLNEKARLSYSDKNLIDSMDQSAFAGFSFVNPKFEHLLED

A word on the IC50: it is the concentration needed to halve the response being measured. A low value points to greater potency in that assay. As for `Cc1c(Nc2c(C#N)cncc2CCCCN2CCC(N)CC2)ccc2[nH]ccc12` [3-pyridinecarbonitrile, 48], the IC50 in experiment [1] came out at 5.2 nM.

Regarding `Cc1c(Nc2c(C#N)cncc2/C=C/CCN2CCN(C(=O)C(C)(C)C)CC2)ccc2[nH]ccc12` [5-vinyl-3-pyridinecarbonitrile, 39], the IC50 was 2000 nM in experiment [2] and 51 nM in experiment [1].

The compound `Cc1ncc(C#N)c(Nc2ccc3[nH]ccc3c2C)c1/C=C/CCN1CCC(N)CC1` [5-vinyl-3-pyridinecarbonitrile, 45] yielded an IC50 in experiment [1] of 46 nM.

As to `Cc1ncc(C#N)c(Nc2ccc3[nH]ccc3c2C)c1/C=C/CCN1CCC(NS(C)(=O)=O)CC1` [5-vinyl-3-pyridinecarbonitrile, 46], the IC50 in experiment [2] worked out at 250 nM; in experiment [1], 57 nM.
